Experimental data reported in US20250099420A1, “SMALL MOLECULE MODULATORS OF GPR139 COMPLEX” (University of Florida Research Foundation, Incorporated, priority 2022, published 2025).
pEC50: −log10 of the molar value. Read-outs that look alike come from different tables or passages of the source.

Key:
[1] = tested on: parental HEK cells; assay: HEK parental Agonist Counterscreen Assay (non-transfected cells); type: cell-based; details: for Averaged Max % Response (±St. Dev.): activity relative to known control
From the text: The high control for the agonist counterscreen was Forskolin not acetylcholine.

[2] = molecular target: T1, GPR139 (Homo sapiens, UniProt Q6DWJ6); assay: GPR139 Agonist titration / agonist counterscreen assay (calcium detection, HEK-GPR139 cells); type: cell-based; parameters: expressed in transfected cells; host or cells: HEK Aequorin cells, Maxcyte transient transfection; details: GPR139 Agonist Activity; for pEC50: read-out: EC50; for Averaged Max % Response (±St. Dev.): activity relative to known control
T1 sequence (Q6DWJ6 1-353): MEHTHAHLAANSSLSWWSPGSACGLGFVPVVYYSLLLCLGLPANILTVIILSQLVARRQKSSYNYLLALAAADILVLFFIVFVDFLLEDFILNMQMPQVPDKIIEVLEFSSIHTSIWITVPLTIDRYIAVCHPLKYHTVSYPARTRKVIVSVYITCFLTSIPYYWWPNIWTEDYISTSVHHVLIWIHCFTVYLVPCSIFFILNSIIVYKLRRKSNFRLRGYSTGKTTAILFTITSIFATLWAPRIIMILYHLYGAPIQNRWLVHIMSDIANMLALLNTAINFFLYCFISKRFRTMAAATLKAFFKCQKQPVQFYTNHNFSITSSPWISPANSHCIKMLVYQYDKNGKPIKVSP
Description: GPR activity was assessed using a calcium detection assay. […] Negative control samples were treated with DMSO. […] Intracellular calcium was measured using Calcium 5.

[3] = Homo sapiens, HEK293, HEK Agonist Activity section of Table 4 (parental HEK counterscreen)
[4] = values printed in E-notation without unit
[5] = HEK Agonist Activity section of Table 4 (parental HEK counterscreen)
[6] = Homo sapiens, HEK293, HEK Agonist Activity, parental non-transfected HEK cells

| Structure (SMILES) | Lipophilic Efficiency (logD) ([1]; HEK Agonist Activity section) | Lipophilic Efficiency (logP) ([1]; HEK Agonist Activity section) | Averaged Max % Response (±St. Dev.) ([1]; HEK Agonist Activity section) | pEC50 [1, 3] | Efficiency Ligand [2] | Hill Slope [2] | Lipophilic Efficiency (logD) [2] | Lipophilic Efficiency (logP) [2] | pEC50 ([2]; HEK-GPR139 cells) | Averaged Max % Response (±St. Dev.) [2] | Lipophilic Efficiency (logD) ([2]; based on logD) | Lipophilic Efficiency (logP) ([2]; based on logP) | Hill Slope ([2]; fitted dose-response curve) | Efficiency Ligand ([2]; ligand efficiency) | pEC50 [2, 4] | pEC50 [1, 5] | Lipophilic Efficiency (logD) ([1]; HEK Agonist Activity) | Lipophilic Efficiency (logP) ([1]; HEK Agonist Activity) | Averaged Max % Response (±St. Dev.) ([1]; HEK Agonist Activity) | pEC50 [1, 6] |
| --- | --- | --- | --- | --- | --- | --- | --- | --- | --- | --- | --- | --- | --- | --- | --- | --- | --- | --- | --- | --- |
| COc1ccc(CCn2nc(-c3cccnc3)[nH]c2=O)cc1 [SR-01000335115] | 2.33 | 2.33 | 12.86 ± 9.78% | < 4.85 | 0.38 | 1.29 | 3.37 | 3.37 | 5.89 | 86.17 ± 9.84% |  |  |  |  |  |  |  |  |  |  |
| COc1ccccc1NC(=O)NNC(=O)CN1C(=O)COc2ccccc21 [SR-01000336035] | 4.40 | 4.40 | −5.99 ± 6.97% | < 4.85 |  |  |  |  |  | 100.35 ± 10.43% | 6.65 | 6.65 | 0.39 | 0.37 | 7.10 |  |  |  |  |  |
| CCCc1nn(CC(=O)NCc2nc3ccccc3n2C)c(=O)c2cc3ccsc3n12 [SR-01000336681] | 2.37 | 2.37 | 4.99 ± 7.59% |  | 0.26 | 1.92 | 3.33 | 3.33 | 5.80 | 81.02 ± 6.69% |  |  |  |  |  | < 4.85 |  |  |  |  |
| Cc1ccc(C(=O)NNC(=O)CSc2nnc(Cn3cnc4ccccc43)o2)cc1 [SR-01000337370] | 3.15 | 3.14 | 23.00 ± 5.22% |  |  |  |  |  |  | 96.26 ± 15.22% | 5.62 | 5.61 | 0.87 | 0.34 | 7.32 | < 4.85 |  |  |  |  |
| COc1ccc(-c2nnn(CC(=O)NCCc3c[nH]c4ccccc34)n2)cc1OC [SR-01000339494] |  |  |  |  |  |  |  |  |  | 107.79 ± 9.70% | 5.30 | 5.30 | 0.87 | 0.38 |  |  | 1.97 | 1.97 | 13.92 ± 7.54% | < 4.85 |
| COc1ccccc1C(=O)NNC(=O)C(C)Oc1ccc(Cl)cc1Cl (stereo not drawn) [SR-01000356020] |  |  |  |  |  |  |  |  |  | 106.05 ± 9.09% | 4.30 | 4.27 | 0.91 | 0.43 | 7.64 |  | 1.52 | 1.48 | 1.37 ± 3.30% | < 4.85 |
| COc1cccc(C(=O)NNC(=O)C(C)Oc2ccc(Cl)cc2Cl)c1 (stereo not drawn) [SR-01000356497] |  |  |  |  |  |  |  |  |  | 126.50 ± 10.38% | 4.97 | 4.94 | 0.32 | 0.47 | 8.31 |  | 1.52 | 1.48 | 2.54 ± 3.30% | < 4.85 |
| Cc1[nH]c(=O)[nH]c(=O)c1/C=N\NC(=O)CCc1ccc(OC(C)C)cc1 [SR-01000357697] | 3.76 | 3.76 | −2.06 ± 7.71% | < 4.85 | 0.31 | 1.75 | 4.74 | 4.74 |  | 87.67 ± 13.61% |  |  |  |  |  |  |  |  |  |  |
| COc1ccc(C(=O)NNC(=O)COc2ccc(Cl)cc2Cl)cc1OC [SR-01000357814] | 2.25 | 2.21 | 7.60 ± 11.41% | < 4.85 |  |  |  |  |  | 103.91 ± 10.30% | 4.04 | 3.99 | 0.77 | 0.36 | 6.64 |  |  |  |  |  |
| COc1cc(OC)cc(C(=O)NNC(=O)C(C)Oc2ccc(Cl)cc2Cl)c1 (stereo not drawn) [SR-01000358013] |  |  |  |  |  |  |  |  |  | 146.26 ± 17.42% | 4.56 | 4.52 | 0.21 | 0.40 |  |  | 1.68 | 1.64 | 22.28 ± 14.14% | < 4.85 |
| COc1cc(OC)cc(C(=O)NNC(=O)COc2cc(C)c(Cl)c(C)c2)c1 [SR-01000358286] | 1.79 | 1.78 | 17.27 ± 10.49% |  | 0.31 | 1.77 | 2.95 | 2.95 | 6.01 | 88.73 ± 9.49% |  |  |  |  |  | < 4.85 |  |  |  |  |
| CC(CCC(=O)C12CC3CC(CC(C3)C1)C2)CCc1ccc2ccccc2c1 (stereo not drawn) [SR-01000359546] | 1.36 | 1.36 | 3.46 ± 3.80% | < 4.85 | 0.30 | 0.53 | 2.60 | 2.60 |  | 116.44 ± 14.37% |  |  |  |  |  |  |  |  |  |  |
| COc1cc(OC)cc(C(=O)NNC(=O)CCc2ccccc2)c1 [SR-01000359572] | 2.65 | 2.65 | 6.12 ± 4.61% | < 4.85 | 0.37 | 0.98 | 4.18 | 4.18 | 6.38 | 100.90 ± 10.01% |  |  |  |  |  |  |  |  |  |  |
| CCCCCCC(=O)NNC(=O)c1c(O)c2ccccc2n(CCC)c1=O [SR-01000360839] | 4.41 | 2.59 | 0.18 ± 6.80% |  | 0.28 | 1.91 | 4.95 | 3.13 | 5.39 | 57.17 ± 6.17% |  |  |  |  |  | < 4.85 |  |  |  |  |
| CC(C)C(=O)NNC(=O)C(C)Oc1ccc(Cl)cc1Cl (stereo not drawn) [SR-01000361172] | 1.97 | 1.93 | 2.50 ± 11.74% | < 4.85 | 0.40 | 1.48 | 2.81 | 2.78 | 5.70 | 91.50 ± 11.81% |  |  |  |  |  |  |  |  |  |  |
| COc1ccc(CC(=O)NNC(=O)C(C)Oc2ccc(Cl)cc2Cl)cc1 (stereo not drawn) [SR-01000361779] | 1.53 | 1.50 | 9.57 ± 4.06% | < 4.85 |  |  |  |  |  | 89.14 ± 2.93% | 3.38 | 3.35 | 0.85 | 0.36 | 6.70 |  |  |  |  |  |
| O=C(COc1ccc2ccccc2c1)NNC(=O)c1cccc([N+](=O)[O-])c1 [SR-01000362228] | 2.17 | 2.17 | −0.15 ± 6.76% |  | 0.30 | 1.38 | 3.11 | 3.10 | 5.80 | 84.08 ± 9.93% |  |  |  |  |  | < 4.85 |  |  |  |  |
| Cc1ccc(S(=O)(=O)NC(=O)NC(C)Cc2ccccc2)cc1 (stereo not drawn) [SR-01000362293] |  |  |  |  |  |  |  |  |  | 100.19 ± 16.30% | 5.01 | 4.07 | 1.02 | 0.46 | 7.47 |  | 2.39 | 1.45 | −7.08 ± 3.92% | < 4.85 |
| COc1cccc(COC(=O)NC(C)C2COc3ccccc3O2)c1 (stereo not drawn) [SR-01000362527] | 1.68 | 1.68 | 12.25 ± 2.76% | < 4.85 | 0.34 | 0.88 | 2.98 | 2.98 | 6.15 | 96.08 ± 11.27% |  |  |  |  |  |  |  |  |  |  |
